These results are taken from patent US9388149B2, “Disubstituted 3,4-diamino-3-cyclobutene-1,2-dione compounds for use in the treatment of chemokine-mediated diseases” (GALDERMA RESEARCH & DEVELOPMENT, priority 2011, dated 2016).

One data set concerns the target CXCR2 receptor (Homo sapiens (Human), UniProt P25025). The data set can be described thus: β-arrestin recruitment test, PathHunter HEK293-CXCR2 cells stimulated with CXCL8. It is filed as cell-based. The note with it: inhibition of CXCL8 (10 nM) induced β-arrestin 2 recruitment; *9999 signifies not active. How it is done: (§1) The in vitro affinity of the compounds of the present invention for the CXCR1 and CXCR2 receptors was determined on a functional test of the β-arrestin recruitment after receptor activation type.
(§2) β-Arrestin recruitment test: “PathHunter HEK293-CXCR2” or “U2OS hCXCR1 β-arrestin” cells (DiscoveRx Corporation) were seeded overnight at 10 000 cells/well (384-well format) in 20 μl of Opti MEM I medium. A preincubation with the antagonist or the vehicle for 30 min at 37° C. and 5% CO2 was followed by 60 minutes of stimulation with CXCL8 at 37° C. and 5% CO2. The cells were then placed at ambient temperature for 30 minutes. The PathHunter detection reagent (DiscoveRx Corporation) was added. […] The data were analyzed by means of a non-linear curve procedure using the XLFit4 exploitation software (IDBS) and the IC50 values were determined.
In general terms: Activated receptors often draw arrestin, which recruitment assays turn into a signal.

The target in the next data set is CXCR1 receptor (Homo sapiens (Human), UniProt P25024). Description: β-arrestin recruitment test, U2OS hCXCR1 β-arrestin cells stimulated with CXCL8. It is filed as cell-based. The following applies: inhibition of CXCL8 (10 nM) induced β-arrestin 2 recruitment; *9999 signifies not active. As for the experimental part:
as §1, §2

Data set [1] can be described thus: Metabolic stabilities in hepatocytes. The class given is in vitro ADME. The note with it: compound 1 μM, sampling up to 24 hours; for Half-life time: human hepatocytes. As for the experimental part: The human hepatocytes were supplied by Biopredic in 24-well plates.
The samples of incubation medium after addition of the test compound were taken at times t=0, 1, 2, 4, 6 and 24 hours.

A short description of data set [2]: Metabolic stabilities in hepatic microsomes. The following applies: hepatic microsomes 0.5 mg/ml protein, compound 1 μM, sampling up to 60 minutes.
Description: Hepatic microsomes (Becton Dickinson) were incubated at a protein concentration of 0.5 mg/ml in the reaction medium.
The reaction medium of the microsomes was composed of phosphate buffer, pH: 7.4 at 100 mM, of MgCl2 at 100 mM (50/50), of an ATP-generating system composed of a mixture of nicotinamide adenine diphosphate (NADP), of glucose-6-phosphate (G6P) at 1 mg/ml and of glucose-6-phosphate dehydrogenase (G6PDH) at 4 U/ml. The compounds were tested at 1 μM (0.1% DMSO).
The samples of incubation medium after addition of the microsomes were taken at times 5, 10, 15, 30 and 60 minutes. At each time, the metabolic reaction was stopped by adding methanol (1 volume incubation medium/3 volumes of methanol). The disappearance of the parent product was measured by LC/MS/MS analysis. The time for which 50% of parent product disappeared (T1/2) was calculated from the kinetics of disappearance of the parent product as a function of time.
The target of another data set is CXCR3 (Homo sapiens (Human), UniProt P49682). Description: Calcium flux on Chem-1 cells expressing the chemokine receptor (FLIPR TETRA), antagonist mode. The note with it: IC50 CXCR3, antagonist activity, reference agonist at AC80.
Sequence of CXCR3 (P49682 whole entry): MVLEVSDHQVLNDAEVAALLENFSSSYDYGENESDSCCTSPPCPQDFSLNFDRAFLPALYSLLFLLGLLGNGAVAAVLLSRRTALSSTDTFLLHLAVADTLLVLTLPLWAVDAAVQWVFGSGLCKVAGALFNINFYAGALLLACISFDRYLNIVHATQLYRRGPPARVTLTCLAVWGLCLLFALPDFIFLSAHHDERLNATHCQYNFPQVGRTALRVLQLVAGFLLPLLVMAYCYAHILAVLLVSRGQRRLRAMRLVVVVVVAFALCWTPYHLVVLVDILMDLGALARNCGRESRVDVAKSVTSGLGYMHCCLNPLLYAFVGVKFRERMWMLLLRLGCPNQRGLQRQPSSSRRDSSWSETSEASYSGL
The target of a further data set is CCR4 (Homo sapiens (Human), UniProt P51679). The description is as above.
Sequence of CCR4 (P51679 whole entry): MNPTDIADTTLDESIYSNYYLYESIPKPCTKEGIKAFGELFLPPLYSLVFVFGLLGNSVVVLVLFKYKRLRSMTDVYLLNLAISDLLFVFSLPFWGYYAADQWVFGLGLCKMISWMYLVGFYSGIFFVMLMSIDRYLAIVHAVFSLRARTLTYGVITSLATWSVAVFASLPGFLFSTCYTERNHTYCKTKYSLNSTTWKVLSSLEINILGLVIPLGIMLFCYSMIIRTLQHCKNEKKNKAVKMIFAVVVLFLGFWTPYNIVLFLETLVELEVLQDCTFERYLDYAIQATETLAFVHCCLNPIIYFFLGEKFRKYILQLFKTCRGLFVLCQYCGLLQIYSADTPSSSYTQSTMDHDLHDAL

Sequence of CXCR1 receptor (P25024 whole entry): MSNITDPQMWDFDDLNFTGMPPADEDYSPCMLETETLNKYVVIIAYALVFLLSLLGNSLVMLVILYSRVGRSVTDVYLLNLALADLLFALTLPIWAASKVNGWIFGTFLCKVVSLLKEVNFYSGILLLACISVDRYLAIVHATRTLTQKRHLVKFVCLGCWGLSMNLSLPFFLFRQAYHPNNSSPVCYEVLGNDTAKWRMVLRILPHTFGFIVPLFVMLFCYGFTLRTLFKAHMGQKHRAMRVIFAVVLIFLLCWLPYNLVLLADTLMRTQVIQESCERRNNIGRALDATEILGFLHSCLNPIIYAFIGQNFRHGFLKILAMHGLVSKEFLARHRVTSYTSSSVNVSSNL
Sequence of CXCR2 receptor (P25025 whole entry): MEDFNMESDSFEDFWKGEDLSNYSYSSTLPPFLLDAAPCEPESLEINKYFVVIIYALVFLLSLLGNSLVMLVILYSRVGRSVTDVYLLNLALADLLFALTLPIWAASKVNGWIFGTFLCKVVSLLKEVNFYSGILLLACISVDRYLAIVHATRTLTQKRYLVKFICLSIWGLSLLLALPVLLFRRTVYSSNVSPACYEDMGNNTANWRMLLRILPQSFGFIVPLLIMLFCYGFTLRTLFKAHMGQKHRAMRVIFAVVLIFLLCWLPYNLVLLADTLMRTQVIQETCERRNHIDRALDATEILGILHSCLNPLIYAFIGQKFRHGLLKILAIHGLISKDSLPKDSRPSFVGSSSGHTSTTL
Description for CCR4: (§3) Measurement of calcium flux on cells: The experiments were carried out on the FLIPR TETRA® platform from Molecular Devices.
(§4) Each cell line expressing a chemokine receptor was established on the basis of the Chem-1 cell stably expressing the recombinant form of the chemokine receptor and also an associated G protein, with the aim of coupling the receptor to the calcium signalling pathway.
(§5) 21 receptors belonging to the chemokine receptor family (CCRs and CXCRs) were analyzed.
Description for CXCR3: as §3, §4, §5

`COC(=O)CN(C)C(=O)c1cccc(Nc2c(NC(c3ccc(C)o3)C3CCCS3)c(=O)c2=O)c1O` (single isomer, unassigned) [9 (Diastereoisomer 1), methyl {[2-hydroxy-3-(2-{[(5-methylfuran-2-yl)-(tetrahydrothiophen-2-yl)methyl]amino}-3,4-dioxocyclobut-1-enylamino)benzoyl]methylamino}acetate]: the IC50 was found to be 153 nM at CXCR2 receptor and 580 nM against CXCR1 receptor.

For `Cc1ccc(C(Nc2c(Nc3cccc(C(=O)N(C)C)c3O)c(=O)c2=O)C2(C)CCCO2)o1` (single isomer, unassigned) [Example 1 (Enantiomer 1 of diastereoisomer 2), 2-Hydroxy-N,N-dimethyl-3-(2-{[(5-methylfuran-2-yl)-(2-methyltetrahydrofuran-2-yl)methyl]amino}-3,4-dioxo-cyclobut-1-enylamino)benzamide], at CXCR2 receptor, the IC50 worked out at 10000 nM.

On to `Cc1ccc(C(Nc2c(Nc3cccc(C(=O)N(C)C)c3O)c(=O)c2=O)C2(C)CCCO2)o1` (single isomer, unassigned) [Example 1 (diastereoisomer 1), 2-hydroxy-N,N-dimethyl-3-(2-{[(5-methylfuran-2-yl)-(2-methyltetrahydrofuran-2-yl)methyl]amino}-3,4-dioxocyclobut-1-enylamino)benzamide], for which the IC50 against CXCR2 receptor was 89 nM.

Take `Cc1ccc(C(Nc2c(Nc3cccc(C(=O)N(C)C)c3O)c(=O)c2=O)C2CCCS2)o1` (single isomer, unassigned) [Example 2 (Enantiomer 1 of diastereoisomer 1), 2-Hydroxy-N,N-dimethyl-3-(2-{[(5-methylfuran-2-yl)-(tetrahydrothiophen-2-yl)methyl]amino}-3,4-dioxo-cyclobut-1-enylamino)benzamide]: on CXCR2 receptor, half-maximal inhibition (IC50) was put at 273 nM.

For `Cc1ccc(C(Nc2c(Nc3cccc(C(=O)N(C)C)c3O)c(=O)c2=O)C2CCCS2)o1` (single isomer, unassigned) [Example 2 (Enantiomer 1 of diastereoisomer 2), 2-Hydroxy-N,N-dimethyl-3-(2-{[(5-methylfuran-2-yl)-(tetrahydrothiophen-2-yl)methyl]amino}-3,4-dioxo-cyclobut-1-enylamino)benzamide], on CXCR2 receptor, the IC50 turned out to be 15 nM. In data set [1], the “Half-life time” value was found to be 3.55 h.

For the compound `Cc1ccc(C(Nc2c(Nc3cccc(C(=O)N(C)C)c3O)c(=O)c2=O)C2CCCS2)o1` (single isomer, unassigned) [Example 2 (Enantiomer 2 of diastereoisomer 1), 2-Hydroxy-N,N-dimethyl-3-(2-{[(5-methylfuran-2-yl)-(tetrahydrothiophen-2-yl)methyl]amino}-3,4-dioxo-cyclobut-1-enylamino)benzamide], half-maximal inhibition against CXCR2 receptor (IC50) was put at 56 nM.

For the compound `Cc1ccc(C(Nc2c(Nc3cccc(C(=O)N(C)C)c3O)c(=O)c2=O)C2CCCS2)o1` (single isomer, unassigned) [Example 2 (Enantiomer 2 of diastereoisomer 2), 2-Hydroxy-N,N-dimethyl-3-(2-{[(5-methylfuran-2-yl)-(tetrahydrothiophen-2-yl)methyl]amino}-3,4-dioxo-cyclobut-1-enylamino)benzamide], it took 134 nM to reach half-maximal inhibition on CXCR2 receptor (IC50). For the same compound, in data set [1], the “Half-life time” value is 3.82 h.

Compound `Cc1ccc(C(Nc2c(Nc3cccc(C(=O)N(C)C)c3O)c(=O)c2=O)C2CCCS2)o1` (single isomer, unassigned) [Example 2 (diastereoisomer 1), 2-Hydroxy-N,N-dimethyl-3-(2-{[(5-methylfuran-2-yl)-(tetrahydrothiophen-2-yl)methyl]amino}-3,4-dioxo-cyclobut-1-enylamino)benzamide] had an IC50 against CXCR2 receptor of 135 nM. Also, the “Half-life time” value in data set [2] turned out to be 0.15 h; in data set [1], 1.77 h.

For `COC(=O)[C@H]1CCCN1C(=O)c1cccc(Nc2c(NC(c3ccc(C)o3)C3CCCS3)c(=O)c2=O)c1O` (single isomer, unassigned) [Example 6], the “Half-life time” value in data set [2] was determined as 0.083 h. In addition, at CXCR3, the IC50 was found to be 140 nM.

As to `Cc1ccc(C(Nc2c(Nc3cccc(C(=O)N(C)CC(F)(F)F)c3O)c(=O)c2=O)C2CCCS2)o1` (single isomer, unassigned) [Example 8 (Diastereoisomer 1)], the half-inhibitory concentration (IC50) on CXCR2 receptor worked out at 115 nM; against CXCR1 receptor, 508 nM.

`Cc1ccc(C(Nc2c(Nc3cccc(C(=O)N(C)CC(F)(F)F)c3O)c(=O)c2=O)C2CCCS2)o1` (single isomer, unassigned) [Example 8 (Diastereoisomer 2)]: the IC50 against CXCR2 receptor turned out to be 47 nM; against CXCR1 receptor, 85 nM.

With `COC(=O)CN(C)C(=O)c1cccc(Nc2c(NC(c3ccc(C)o3)C3CCCS3)c(=O)c2=O)c1O` (single isomer, unassigned) [Example 9 (Diastereoisomer 2), methyl {[2-hydroxy-3-(2-{[(5-methylfuran-2-yl)-(tetrahydrothiophen-2-yl)methyl]amino}-3,4-dioxocyclobut-1-enylamino)benzoyl]methylamino}acetate], the IC50 at CXCR2 receptor came out at 80 nM; against CXCR1 receptor, 89 nM.

With `Cc1ccc(C(Nc2c(Nc3cccc(C(=O)N(C)C)c3O)c(=O)c2=O)[C@@H]2COC(C)(C)O2)o1` (single isomer, unassigned) [Example 14 (Diastereoisomer 1)], the IC50 at CXCR2 receptor and at CXCR1 receptor was 10000 nM throughout.

As to `Cc1ccc(C(Nc2c(Nc3cccc(C(=O)N(C)C)c3O)c(=O)c2=O)[C@@H]2COC(C)(C)O2)o1` (single isomer, unassigned) [Example 14 (Diastereoisomer 2)], the half-inhibitory concentration (IC50) is 1250 nM at CXCR2 receptor and 10000 nM against CXCR1 receptor.

For `COC(=O)[C@H]1CCCN1C(=O)c1cccc(Nc2c(NC(c3ccc(C)o3)C3CCCS3)c(=O)c2=O)c1O` (single isomer, unassigned) [Example 20], the “Half-life time” value in data set [2] stood at 0.283 h. Also, the concentration for half-maximal inhibition (IC50) at CXCR3 was 180 nM; at CCR4, 7.2 nM. Also, in data set [1] (human, hepatocytes, read-out: Half-life time), the half-life at 1 μM amounted to 3.52 h.

`Cc1ccc(C(Nc2c(Nc3cccc(C(=O)N(C)C)c3O)c(=O)c2=O)[C@H]2CCCO2)o1` (stereo in doubt) [Example 11, 2-hydroxy-N,N-dimethyl-3-(2-{[(R)-(5-methylfuran-2-yl)tetrahydrofuran-2-ylmethyl]amino}-3,4-dioxocyclobut-1-enylamino)benzamide]: the half-inhibitory concentration (IC50) at CXCR2 receptor was 176 nM; on CXCR1 receptor it was 1320 nM.

As for `Cc1ccc(C(Nc2c(Nc3cccc(C(=O)N(C)C)c3O)c(=O)c2=O)[C@@H]2CCCO2)o1` (stereo in doubt) [Example 12, 2-hydroxy-N,N-dimethyl-3-(2-{[(S)-(5-methylfuran-2-yl)tetrahydrofuran-2-ylmethyl]amino}-3,4-dioxocyclobut-1-enylamino)benzamide], the figures for the IC50 against CXCR2 receptor and against CXCR1 receptor were 83 nM and 483 nM, respectively.

Turning to `Cc1ccc(C(Nc2c(Nc3cccc(C(=O)N4CCC[C@H]4C(=O)OC(C)C)c3F)c(=O)c2=O)C2CCCS2)o1` (stereo partly drawn) [Example 4, Isopropyl (S)-1-[2-fluoro-3-(2-{[(5-methylfuran-2-yl)-(tetrahydrothiophen-2-yl)methyl]amino}-3,4-dioxocyclobut-1-enylamino)benzoyl]pyrrolidine-2-carboxylate], the IC50 against CXCR2 receptor turned out to be 109 nM; against CXCR1 receptor it was 1890 nM.

On to `CCOC(=O)[C@@H]1CCCN1C(=O)c1cccc(Nc2c(NC(c3ccc(C)o3)C3CCCS3)c(=O)c2=O)c1F` (stereo partly drawn) [Example 5, Ethyl (S)-1-[2-fluoro-3-(2-{[(5-methylfuran-2-yl)-(tetrahydrothiophen-2-yl)methyl]amino}-3,4-dioxocyclobut-1-enylamino)benzoyl]pyrrolidine-2-carboxylate], for which the IC50 at CXCR2 receptor is 106 nM; on CXCR1 receptor, 711 nM.

As to `CN(C)C(=O)c1cccc(Nc2c(NC(c3ccccc3)C3CCCO3)c(=O)c2=O)c1O` (stereo not drawn) [Example 13, 3-(3,4-dioxo-2-{[phenyl(tetrahydrofuran-2-yl)methyl]amino}cyclobut-1-enylamino)-2-hydroxy-N,N-dimethylbenzamide], the 50% inhibitory concentration (IC50) came out at 170 nM against CXCR2 receptor and 1150 nM at CXCR1 receptor.

For `Cc1ccc(C(Nc2c(Nc3cccn(C)c3=O)c(=O)c2=O)C2CCCS2)o1` (stereo not drawn) [Example 17, 3-{[(5-methylfuran-2-yl)-(tetrahydrothiophen-2-yl)methyl]amino}-4-(1-methyl-2-oxo-1,2-dihydropyridin-3-ylamino)cyclobut-3-ene-1,2-dione], the IC50 on CXCR2 receptor amounted to 44 nM; on CXCR1 receptor, 384 nM.

As for “Methyl (S)-1[2-fluoro-3-(2-{[(R,S)-(5-methylfuran-2-yl)((S,R)-tetrahydrothiophen-2-yl)methyl]amino}-3,4-dioxocyclobut-1-enylamino)benzoyl]pyrrolidine-2-carboxylate [Example 3 (pair of enantiomers 1 and 2)]”, the IC50 against CXCR2 receptor is 221 nM; on CXCR1 receptor, 812 nM. Further, the “Half-life time” value in data set [2] worked out at 0.05 h; in data set [1], 2.35 h.

As a reminder, the IC50 is the point on the concentration scale where inhibition reaches its midpoint. For orientation: half-life means how long it takes for the measured level to halve.
